A value given as a limit tells only on which side of the number the result lay.

As a reminder, the melting point is the temperature, or range, at which the solid turns liquid. Molecule `CC(=O)Oc1ccccc1C(=O)ON(C(N)=O)C(C)c1cc2ccccc2s1` (stereo unspecified) showed a melting point of 141 to 143 °C.

As to `Cc1ccc(CNc2nc(Nc3cccc(N)c3)nc(OCC(F)(F)F)n2)o1`, the melting point fell in the range of 75 to 77 °C. Then `CC(=O)Nc1ccc(-c2cccc(C3=NC(C)(C)Cc4cc(O)c5c(c43)CC(C)(C)O5)c2)cc1`, with 185 to 189 °C; and `Cc1nc(N)c(C#N)cc1-c1ccccc1`, with 182 to 189 °C.

For the molecule `O=C(O)Cc1sc(NC(=O)c2cc(Br)ccc2O)nc1-c1ccccc1`, the melting point was in the range of 284 to 286 °C. For `CCOC(=O)c1cc(S)cc(S)c1`, the melting point was 49 to 51 °C.

The molecule `Fc1ccc(-c2nn3c(c2-c2ccncc2)NCCC3)cc1` had a melting point of 207 to 209 °C. Then `CC1CC(=O)NN=C1c1ccc(N2CCC(CN)CC2)c([N+](=O)[O-])c1` (stereo unspecified), with 131 to 132 °C; and `CN(C)C(N)=Nc1cc(F)ccc1N1CCOCC1`, with 137 to 138 °C; and `CN1C(=O)[C@H](NC(=O)CCc2ccc(C#N)cc2)N=C(c2ccccc2)c2ccccc21`, with 81 to 85 °C.

For the molecule `COc1cccc2c1C13CCN(C(=O)C4CCC4)C(C2)C1CCC(=O)C3` (stereo unspecified), the melting point is 125 to 126 °C. Then `Clc1nc(Cl)nc(-c2cccn2Cc2ccccc2)n1`, with 150 to 151 °C.

Consider `COc1cc(C(O)c2ccc(C(=O)N(C(C)C)C3CCCCC3)cc2)cc(OC)c1OC` (stereo unspecified), for which the melting point fell in the range of 158 to 160 °C.

On to `COc1cc2c(c3c1OC(C)(C)C3)C(c1cccc(N3CCNS3)c1)=NC(C)(C)C2`, for which the melting point lay in the range of 145 to 147 °C. `O=c1c2cnc3ccc(F)cc3c2on1-c1ccccc1` yielded a melting point of 174 °C. Then `CCOP(=O)(OCC)C1(P(=O)(OCC)OCC)CC(C(=O)C(C)c2ccc(-c3ccccc3)c(F)c2)=NN1` (stereo unspecified), with 109 to 110 °C. Then `CCn1ccnc1CC1COc2ccccc2O1` (stereo unspecified), with 77 to 78 °C; and `COc1ccc2c(c1)CC(=O)c1cc(C(C)C(=O)O)ccc1S2` (stereo unspecified), with 152 to 153 °C; and `COc1cc2c(cc1OC)CC(N)CC2` (stereo unspecified), with 83 to 86 °C. Then `CC(C(=O)O)c1ccc(-c2ccc(F)cc2)c(O)c1` (stereo unspecified), with 138 to 142 °C; and `O=C(O)CCCC(=O)Nc1ccc(N2CCN(C3(c4ccc(-c5ccccc5)cc4)C(=O)NC(=O)NC3=O)CC2)cc1`, with 268 to 269 °C. Molecule `CCOC(=O)NS(=O)(=O)c1ccc2c(c1)C(=O)CO2` gave a melting point of 118 to 119 °C.

The molecule `COc1ccc(OCC2NCCS2)cc1` (stereo unspecified) came in with a melting point of 54 to 55 °C. Molecule `O=C1NC(=O)c2cc(Nc3ccccc3)c(Nc3ccccc3)cc21` displayed a melting point of 205 to 207 °C. Then `CCCCC=C(c1ccccc1N1CCCCC1)C(C(N)=O)c1ccc(C(=O)OCC)cc1` (stereo unspecified), with 83 to 85 °C.

As to `Cc1noc(NS(=O)(=O)c2ccccc2-c2ccc(-c3ncco3)cc2CN2C(=O)C(F)(F)c3ccccc32)c1C`, the melting point lay within 112 to 120 °C.

In turn, `CCOC(=O)c1c(C)nc(C(C)C)c2nnn(CC)c12` came in with a melting point of 55 to 57 °C.

Consider `CC(=O)c1ccc(S(N)(=O)=O)c(Cl)c1`, for which the melting point lay in the range of 146 to 148 °C. Then `COC(=O)C1Oc2ccc([N+](=O)[O-])cc2O1` (stereo unspecified), with 90 to 92 °C; and `CCOC(=O)C#CCOCC1=C(C(=O)OCC)C(c2cccc(Cl)c2Cl)C(C(=O)OC)=C(C)N1` (stereo unspecified), with 123 to 125 °C. Then `CCNC(=O)c1cc(N)c(N)cc1OC`, with 65 to 67 °C. `O=c1c(C2=Nc3ccccc3S(=O)(=O)N2)c(O)c2ccccc2n1CCCC(F)(F)F` showed a melting point of 249 to 250 °C. For the molecule `O=C(Nc1cc2ncc(CN3CCCC3)cc2cc1Cl)c1ccc(-c2cc3ccccc3o2)cc1`, the melting point turned out to be 209 °C.

Take `COc1ccc2oc(-c3ccc(O)cc3C)cc2c1`: the melting point was 149 to 154 °C.

Molecule `O=C(CCC(=O)N1CCC(c2ccc(Cl)cc2)CC1)c1ccc2c(c1)CCN(C(=O)c1ccccc1)CC2` returned a melting point of 158 to 160 °C. Then `CC(=O)Oc1ccccc1C(=O)N1CCN(C(=O)c2ccccc2OC(C)=O)CC1`, with 175 to 177 °C; and `COC(=O)c1ccc(-c2ccc3c(c2)CCN(C2CCN(C4CCC4)C2)C3=O)c(F)c1` (stereo unspecified), with 75 °C. Then `Cc1cccc(C)c1CNc1cc(C(=O)N(C)C)nc2c(C)c(C)[nH]c12`, with 315 °C; and `Cc1cc(CCCCCCc2c(Cl)cc(C3=NCCO3)cc2Cl)on1`, with 65 to 66 °C; and `COc1cc(CCNC(=O)[C@@H](NC(=O)OC(C)(C)C)C(C)C)ccc1OCc1ccccc1`, with 115 to 118 °C. `O=C(O)CCCCCCC=C(c1ccccc1)c1ccccc1` showed a melting point of 77.5 to 78.5 °C. `CC1CN(c2ccc(F)cc2)N=C1NC=O` (stereo unspecified) returned a melting point of 166 to 168 °C. For `CSc1nc(C)c(Cc2cccnc2)c(=O)[nH]1`, the melting point lay within 208 to 211 °C. Then `C=C(C)c1ccc2c(c1)C(=O)c1ccccc1C2=O`, with 126 °C. The molecule `CCOC(=O)c1ccc(N)cc1-c1ccc(OC)c(OC)c1` registered a melting point of 127 °C. Molecule `N#Cc1cc(Cl)cc(Oc2ccc(CC(=O)Nc3ccc(CS(N)(=O)=O)cc3)cc2Br)c1` registered a melting point of 133 to 135 °C. Then `C#CCN1C(=O)c2cccc3c2N(CC3)c2ccccc21`, with 104 to 105 °C; and `C=C(c1cc(F)ccc1O)n1ccnc1`, with 164 to 166 °C. Molecule `OCCSP(=S)(C1CCCCC1)C1CCCCC1` gave a melting point of 82 to 84 °C. Then `CCCCCCCCCCS(=O)(=O)CCCOCCn1c(CCC)nc2c(N)nc3ccccc3c21`, with 84 to 86 °C; and `Cc1c(Cc2ccc(C(C)C)cc2)c2c(c(C)c1NC(=O)CC(C)(C)C)C(c1ccc(C(C)C)cc1)CO2` (stereo unspecified), with 157 to 158 °C; and `O=C(Nc1cccc(Cl)c1)ONC1=Nc2ccc([N+](=O)[O-])cc2C(c2ccccc2)=NC1`, with 123 to 125 °C. Then `O=C(c1cccnc1)c1cc(-c2ccc(Cl)cc2)c(N2CCOCC2)s1`, with 114 °C; and `CCCCc1ccc2nc(Cl)cn2n1`, with 61 to 63 °C.

Take `COCCOc1ccc(CCCNS(=O)(=O)c2ccccc2)c(Oc2ncc(C(F)(F)F)cc2Cl)c1`: the melting point fell in the range of 94 to 95 °C. Then `COc1cc(O)nc(N)n1`, with 106 to 107 °C. Then `COc1cccc(C(=O)NN=C2C(=O)Nc3ccc(I)cc32)c1`, with 287 °C.

As for `COC(=O)Nc1nc2ccccc2n1-c1nc(N2CCOCC2)nc(N2CCOCC2)n1`, the melting point lay in the range of 206 to 209 °C.

As for `CC(C)Nc1cccnc1N1CCN(C(=O)c2ccc(C(=O)N(C)CCO)cc2)CC1`, the melting point was 131 to 132 °C. Take `NC(=O)CN1Cc2ccccc2CCC1=O`: the melting point was 156 to 158 °C. Then `COc1cc2c(cc1SC)CCN(C(C)=O)CC2`, with 138 to 140 °C; and `Cc1[nH]cnc1CN1CCc2c(c3cccc(F)c3n2C)C1=O`, with 230 to 233 °C. Then `CC(C)(C)ONC(=O)[C@H]1CNCCN1C(=O)OC(C)(C)C`, with 113 to 114 °C; and `COC(=O)c1ccc(C2=NC(C)(C)Cc3cc(OC)c4c(c32)CC(C)(C)O4)cc1N`, with 161 to 162 °C; and `Cc1cccc(C)c1CNc1cc(Br)cc2c1nc(N(C)C)n2C`, with 157 to 158 °C. Then `CSc1cc2c(cc1SC)C(=O)c1cc3ccccc3cc1C2=O`, with more than 260 °C; and `NC(=O)C1C(=O)NC(=O)C(C(N)=O)C12CCCCC2` (stereo unspecified), with more than 300 °C; and `CC1(C)COC(c2ccc(F)cc2Cl)=N1`, with 138 to 139 °C.

`Cc1noc(C2CN3CCC2CC3)n1` (stereo unspecified) displayed a melting point of 112 to 115 °C.

As for `NC(=O)c1ccc(CCn2ccn(C3CCc4ccccc4C3)c2=S)cc1` (stereo unspecified), the melting point was 158 to 160 °C. Then `CCCN(CCC)C(=O)CNc1nc(-c2ccccc2)nc(C(F)(F)F)c1Cl`, with 115 to 117 °C; and `Cc1nc2cccc(C)n2c(=O)c1CCN1CCN(c2cccc(Cl)c2)CC1`, with 116 to 118 °C. Then `NC(=O)c1ccc(F)c2c1CC(N)CO2` (stereo unspecified), with 229 °C; and `CC(=O)C1=C(C#N)C(c2cccc(C#N)c2Br)c2c[nH]nc2N1` (stereo unspecified), with more than 230 °C; and `CC(=O)c1ccc(N2CCN(Cc3cn4cc(Cl)ccc4n3)CC2)cc1`, with 186 to 187 °C. Turning to `O=C(O)c1ccc(C(=O)Nc2ccc(C(=O)N3CCCc4ccccc43)cc2)cc1`, the melting point was more than 300 °C.

Molecule `CCOC(=O)c1c2ccc(Cl)cc2c(-c2ccccc2)n1CCC(C)(C)CCBr` had a melting point of 87 to 88 °C.

Molecule `O=c1[nH]cccc1Cc1cccc(F)c1` returned a melting point of 110 °C. Then `CCCN(CCC)CCc1ccc(O)c2[nH]ncc12`, with 125 to 127 °C.

In turn, `O=C(NCC12CC3CC(CC(C3)C1)C2)c1cc(I)cnc1Cl` came in with a melting point of 163 to 164 °C. Then `C#CCOc1cc(OCC=C)ccc1-c1nc2ncccc2[nH]1`, with 210 °C; and `CC1(CO)CCC2(CC1)OCCO2`, with 42 to 43 °C. Then `O=C(Nc1cccc(F)c1)Nc1ccnc(C(F)(F)F)c1`, with 165 to 167 °C. Then `COC(=O)CC(=O)c1ccc(-c2ccccc2)cc1`, with 82 °C. For `O=C(Cl)c1cc(OCc2ccccc2)cc([N+](=O)[O-])c1`, the melting point lay in the range of 84 to 85 °C. Consider `OC1CSC(Oc2cccnc2-c2ccoc2)C(O)C1O` (stereo unspecified), for which the melting point came to 128 °C. Then `NC(=O)N1CCC(c2nn(-c3ccccc3)c3cc(Cl)ccc23)CC1`, with 148 to 150 °C; and `CCN1c2ccccc2Sc2ccccc21`, with 103 to 104 °C; and `CN1CC=C(c2ccccc2Cc2ccccc2)CC1`, with 55 to 57 °C. Then `CC(c1oc2ccccc2c(=O)c1-c1cccc(F)c1)n1nc(-c2cc(O)cc(Cl)c2)c2c(N)ncnc21` (stereo unspecified), with 122 to 124 °C. Then `CS(=O)(=O)n1c(C#N)nc2cc3c(cc21)OC(F)(Cl)C(F)(Cl)O3` (stereo unspecified), with 123 to 126 °C.

For the origin of these results see a melting point compilation (Tetko et al.; mined from patent text by program, amines drawn as free bases though some values may be those of a salt).
